# System: ketaminanästhesierten Katze
# Test: Effect on venous capacity (plethysmograph) and mean arterial pressure in the anaesthetised cat
# Format: in vivo
# Conditions: Dosis 0,1 mg/kg i.v., ketamine-anaesthetised cat
# From the text: Die Wirkung der erfindungsgemäßen Stoffe auf die Venenkapazität wird an der narkotisierten Katze mittels eines Plethysmographen gemessen. Als Vergleich wird in jedem Versuch als Standardsubstanz Natrium-Nitroprussid untersucht.
structure (smiles),measurement,value
"CCOc1ccc2c(c1)CCN1CCC(Nc3ccccc3NC(C)=O)CC21 (single isomer, unassigned) [Beispiel 26]",art.Mitteldruck,Ø

# Reference: EP0203441A2, “Substituted benzoquinolizines, process for their preparation and their use as medicaments” (BAYER AG, priority 1985, dated 1986)
